SMILES strings stand for the structures.

This is an account of results in patent US7754443B2, “Serum replacement for thyroid hormone-responsive cell culture” (University of Victoria Innovation and Development …, priority 2005, dated 2010).

Assay [1] relates to growth hormone (GH) mRNA transcript. As to the kind of experiment: GH transcript levels by RT-QPCR in GH3 cells cultured in serum-containing medium. Type of assay: cell-based, rat. Particulars: 10 nM T3, 2 days, relative to uninduced control. How it is done: (§1) The indicated cell types were plated at a density of 2×10^4 cells/cm^2 and cultured in the presence of medium containing either 10% charcoal stripped fetal calf serum (stripped) or Rana tadpole serum (RTS). […] All values were normalized to an invariant L8 ribosomal protein transcript. A) Relative expression levels of the control cells. B) Fold change of the GH transcript levels relative to the control, uninduced cells in accordance with an embodiment. […] The expression of TRβ and GH gene transcripts was analyzed using a MX4000 real-time quantitative polymerase chain reaction system (Stratagene, La Jolla, Calif., USA) as described previously (Crump, Werry et al. 2002) using gene specific primers (for TRβ: UP primer 5'-[NT]; DOWN primer 5'-[NT]; for GH: UP primer 5'-[NT]; DOWN primer 5'-[NT] The annealing temperature was 55° C. A standard curve for each primer pair was generated using the appropriate quantified plasmid DNA containing the target gene sequence. Quadruplicate reactions were performed for each sample and data were averaged and normalized to the expression of the control gene encoding the ribosomal protein L8.

Assay [2] concerns TH receptor β (TRβ) gene expression. As to the kind of experiment: TRβ transcript levels by RT-QPCR in XTC-2 cells cultured in serum-containing medium. Format: cell-based, Xenopus laevis. The method, then: The indicated cell types were plated at a density of 2×10^4 cells/cm^2 and cultured in the presence of medium containing either 10% charcoal stripped fetal calf serum (stripped) or Rana tadpole serum (RTS). […] All values were normalized to an invariant L8 ribosomal protein transcript. A) Relative expression levels of the control cells. B) Fold change of the TRβ transcript levels relative to the control, uninduced cells in accordance with an embodiment. […] XTC cells were plated in triplicate at a density of 2×10^4 cells/cm^2 and cultured in the presence of medium containing either 10% charcoal stripped fetal calf serum (CS) or Rana tadpole serum from different premetamorphic (VI, XII) or prometamorphic (XV, XVIII) stages (Taylor and Kollros, 1946). […] All values were normalized to an invariant L8 ribosomal protein transcript. The relative expression levels are indicated with vehicle control (white bars) and T3-exposed (black bars) cells in accordance with an embodiment. FIG. 3 is evidence that serum from other species is suitable for use in thyroid hormone induction experiments. XTC cells were plated at a density of 2×10^4 cells/cm^2 and cultured in the presence of medium containing either 10% charcoal stripped fetal calf serum (stripped), serum from salmon Parr (salmon), or neotenic salamanders (salamander). […] All values were normalized to an invariant L8 ribosomal protein transcript. […]

For assay [3], the system named is rat pituitary GH3 cells. As to the kind of experiment: TH-induced proliferation of GH3 cells, hemocytometer cell count. Particulars: 10 nM T3, all three sera, relative to vehicle controls. Format: cell-based. The method, then:
FIG. 5 is evidence that serum from other species is suitable for use in thyroid hormone induction experiments with mammalian cells. 3.5×10^4 rat pituitary GH3 cells were plated in duplicate at a density of 2×10^4 cells/cm^2 and cultured in the presence of medium containing either 10% charcoal stripped fetal calf serum (stripped), serum from salmon parr (salmon), or Rana catesbeiana tadpoles (RTS). After 2 days, 10 nM T3 or vehicle control was added and the cells were counted 5 days later after trypsinization on a hemocytometer. The total cell numbers are indicated with vehicle control (white bars) and T3-exposed (black bars) cells in accordance with an embodiment.
Two frog cell lines, XTC-2 cells (Machuca and Tata 1992) and XLA cells (Kanamori and Brown 1993) were obtained from J. Tata and D. Brown, respectively and grown in 70% Liebovitz medium supplemented with 10% bovine growth serum, 100 µg/ml gentamycin sulfate and 10 mM Hepes, pH 7.5 (GIBCO/Invitrogen, Grand Island, N.Y.). These cells were grown at 25° C. in air. The rat pituitary tumor GH3 cell line was obtained from R. T. Zoeller and maintained in Kaighn's modification of Ham's F 12 medium with 2 mM glutamine, 1.5 g/L sodium bicarbonate, 10% fetal bovine serum, 1,000 U/ml penicillin, and 1 mg/ml streptomycin at 37° C. in 5% CO2. […]

For assay [4], the system named is TH receptor β (TRβ) gene expression. Put plainly: TRβ transcript levels by RT-QPCR in XLA cells cultured in serum-containing medium. Format: cell-based, Xenopus laevis. Particulars: 10 nM T3, 2 days, relative to uninduced control. How it is done:
as §1, with “the TRβ” for “the GH”, “L8. […] Total RNA was isolated from these cells and analyzed for the levels of the TRβ gene by reverse transcription quantitative real time polymerase chain reaction (RT-QPCR). […]” for “L8.”

For `N[C@@H](Cc1cc(I)c(Oc2ccc(O)c(I)c2)c(I)c1)C(=O)O` [T3, 3,5,3′-triiodothyronine], in assay [1], the “GH mRNA levels on exposure to T3” value was “increase”. The “TRβ levels after addition of T3” value in assay [2] (XTC cells, 10 nM T3, in charcoal stripped serum or RTS of stages VI, XII, XV, XVIII (all cases)) is “robust elevation”. Moreover, the “TRβ mRNA levels on exposure to T3” value in assay [2] (XTC-2 cells, 10 nM T3, 2 days, relative to uninduced control) is given as “increase”; in assay [4], “increase”. Besides, the “GH3 proliferation on exposure to T3” value in assay [3] is listed as “increased proliferation”.
